Marks after values point to notes of the source that are not given here.
What was measured:
XOD (xanthine oxidase) = XOD (xanthine oxidase) (Homo sapiens, UniProt P47989); experiment: Inhibition of XOD enzyme activity (absorbance at 295 nm, xanthine substrate); format: biochemical; settings: XOD 0.02 U/mL, xanthine 1 mmol/L, 37° C.; read-out: IC50 in inhibiting XOD
Method: Forty μL of xanthine solution (1 mmol/L) was added with a spray gun to measure absorbance every 20 s for 15 times.

THP-1 cells = experiment: IL-1β secretion in THP-1 cells stimulated by lipopolysaccharide and sodium urate (gout inflammation model, ELISA); format: cell-based; settings: 100 μmol/L compound pre-incubated 12 h, then lipopolysaccharide 1 μg/mL 2 h and sodium urate 200 μg/mL 4 h; PMA-differentiated THP-1; model group 8747.09 ± 975.97, control group 214.83 ± 11.92
Method: THP-1 suspension cells were inoculated into a 24-well plate. When the density reached 80%, a phorbol ester (PMA) solution with a final concentration of 100 ng/mL was added. After 12 hours of PMA treatment, THP-1 cells differentiated into adherent macrophages. Culture medium was aspirated before washing the cells with PBS, completely replacing the culture medium to culture for 12 h before carrying out a dosing treatment. One hundred μmol/L of the above identified monomer compounds were pre-incubated for 12 h, then lipopolysaccharide with a final concentration of 1 μg/mL was added and acted for 2 h, and finally a sodium urate solution with a final concentration of 200 μg/mL was added and acted for 4 h. […] The model group was pre-incubated without drugs, and cells were stimulated with lipopolysaccharide and sodium urate. Finally, the cell supernatant was collected, centrifuged, and IL-1β content in the supernatant was measured by using an ELISA kit.

Chain of XOD (xanthine oxidase) (P47989 whole entry, species assumed): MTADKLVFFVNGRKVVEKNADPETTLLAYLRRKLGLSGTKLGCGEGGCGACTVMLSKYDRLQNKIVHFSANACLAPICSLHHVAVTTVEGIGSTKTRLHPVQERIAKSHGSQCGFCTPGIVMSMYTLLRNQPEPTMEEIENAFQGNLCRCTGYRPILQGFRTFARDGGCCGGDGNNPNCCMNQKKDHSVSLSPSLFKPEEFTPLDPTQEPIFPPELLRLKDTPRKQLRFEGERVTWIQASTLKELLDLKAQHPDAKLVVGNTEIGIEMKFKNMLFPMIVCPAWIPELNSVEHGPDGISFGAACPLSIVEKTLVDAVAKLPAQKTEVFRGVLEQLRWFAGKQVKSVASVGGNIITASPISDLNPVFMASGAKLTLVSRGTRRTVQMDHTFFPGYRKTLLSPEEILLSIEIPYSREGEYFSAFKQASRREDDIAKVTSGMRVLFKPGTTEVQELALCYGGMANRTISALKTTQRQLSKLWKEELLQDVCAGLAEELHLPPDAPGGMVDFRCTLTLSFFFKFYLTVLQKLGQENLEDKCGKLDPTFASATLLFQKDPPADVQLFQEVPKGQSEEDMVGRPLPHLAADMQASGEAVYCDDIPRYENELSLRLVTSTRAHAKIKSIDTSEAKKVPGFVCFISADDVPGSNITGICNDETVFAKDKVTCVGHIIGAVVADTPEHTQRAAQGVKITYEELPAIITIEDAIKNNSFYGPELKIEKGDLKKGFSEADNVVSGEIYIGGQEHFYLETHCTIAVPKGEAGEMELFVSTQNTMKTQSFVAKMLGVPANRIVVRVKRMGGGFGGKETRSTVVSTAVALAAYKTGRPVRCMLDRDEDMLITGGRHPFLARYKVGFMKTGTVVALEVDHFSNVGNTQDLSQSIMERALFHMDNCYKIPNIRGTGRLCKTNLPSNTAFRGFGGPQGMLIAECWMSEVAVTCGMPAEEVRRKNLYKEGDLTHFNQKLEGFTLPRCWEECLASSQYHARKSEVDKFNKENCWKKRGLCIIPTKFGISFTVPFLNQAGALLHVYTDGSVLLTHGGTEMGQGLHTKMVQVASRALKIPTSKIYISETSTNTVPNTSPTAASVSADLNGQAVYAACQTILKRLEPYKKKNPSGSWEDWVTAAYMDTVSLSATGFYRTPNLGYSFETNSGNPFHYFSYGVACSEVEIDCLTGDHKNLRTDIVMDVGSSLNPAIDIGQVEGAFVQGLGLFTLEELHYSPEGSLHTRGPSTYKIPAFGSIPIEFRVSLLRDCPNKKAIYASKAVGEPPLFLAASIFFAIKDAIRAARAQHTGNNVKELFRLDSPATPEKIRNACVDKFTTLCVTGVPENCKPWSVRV

IC50 (XOD (xanthine oxidase)) [µM]	Structure (SMILES)	IL-1β in cell supernatant (THP-1 cells)
122 ± 2.56	O=C(C=Cc1ccc(O)c(O)c1)OC1CC(OC(=O)C=Cc2ccc(O)c(O)c2)(C(=O)O)CC(O)C1O (stereo not shown) [1,5-diCQA, 1,5-dicaffeoylquinic acid]	4176.74 ± 1214.41^b pg/mL
289 ± 21.8	O=C(C=Cc1ccc(O)c(O)c1)OC1CC(O)(C(=O)O)CC(OC(=O)C=Cc2ccc(O)c(O)c2)C1O (stereo not shown) [3,5-diCQA, 3,5-dicaffeoylquinic acid]	8850.00 ± 190.20^e pg/mL
233 ± 10.9	O=C(C=Cc1ccc(O)c(O)c1)OC1CC(O)(C(=O)O)CC(O)C1OC(=O)C=Cc1ccc(O)c(O)c1 (stereo not shown) [4,5-diCQA, 4,5-dicaffeoylquinic acid]	5572.09 ± 632.81^c pg/mL
260 ± 18.4	O=C(C=Cc1ccc(O)c(O)c1)OC1CC(O)(C(=O)O)CC(O)C1OC(=O)C=Cc1ccc(O)c(O)c1 (stereo not shown) [3,4-diCQA, 3,4-dicaffeoylquinic acid]	7088.57 ± 621.91^d pg/mL

Structure (SMILES)	IC50 (XOD (xanthine oxidase)) [µM]	IL-1β in cell supernatant (THP-1 cells)
O=C(C=Cc1ccc(O)c(O)c1)OC1C(O)CC(OC(=O)C=Cc2ccc(O)c(O)c2)(C(=O)O)CC1O (stereo not shown) [1,4-diCQA, 1,4-dicaffeoylquinic acid]	7.36 ± 0.63	4647.67 ± 607.03^bc pg/mL

— US11020367B2, “Method for preparing medicine with dicaffeoylquinic acid for treating gout” (Huazhong Agricultural University, priority 2019, dated 2021)
